From patent US3955959A, “Herbicide for use in transplanted rice” (priority 1974, dated 1976)
Where “and” joins values, the source holds several entries; their conditions need not be identical. Equal values may be shown once.

Columns and labels:
[1] = system: Obw (other broadleaf weeds); test: Example 5 field test, weed control, JAAPR, Japan; assay type: in vivo
Echinochloa crusgalli = test: Example 2 field test, weed control, Chia Yi, Taiwan; assay type: in vivo; settings: obs. 63 DAT
Protocol: (§7) In the field tests of the herbicide of this invention with transplanted rice, the rice seedlings were grown in conventional manner, by seeding the rice in a typical seedbed of sandy loam to clay soil of the country wherein the test was conducted. For laboratory and greenhouse work the seedlings were obtained by seeding rice in a mixture of soil, e.g., Ray silt loam, and peat in wood flats. For purposes of testing the herbicides on younger rice seedlings (infant or Dapog) the rice was usually allowed to grow for 6-15 days before lifting for transplanting. Older (ordinary) rice plants were usually grown for a period of about 2-3 weeks, or as much as about 7 weeks before lifting. Since the period of growth is dependent upon climatic conditions, a better measure of when to transplant the rice seedling is the leaf stage of growth; for infant or Dapog rice the seedling is lifted at the 1.5-2 leaf stage of growth, and for ordinary seedlings at the 2.5-5 leaf stage. The seedlings were then transplanted to the test plots for evaluation of the herbicide for injury against weed species present with the transplanted rice. The herbicides were then applied to the growth medium of the weeds and transplant rice, either preemergent or postemergent with respect to the weeds and postemergent with respect to the transplanted rice. […] Application rates given in the tables refer to the amount of active ingredient used.
(§8) Rice seedlings (ordinary) of Tainan No. 5 variety (japonica) were transplanted at 19 days of growth. Granular formulations of Herbicides A and B were applied at the 1 leaf stage of grass weed (4 DAT) and 2.5 leaf stage of grass weed (10 DAT).

[2] = system: Perennials Ek and Sa (Eleocharis kuroguwai, Sagittaria aginashi); test: Example 1 field test, perennial weed control, Iri, Korea; assay type: in vivo; settings: for % Weed Control (Perennials Ek and Sa): weed weight at 63 DAT
Excerpt: (§1) In the field test 48 day-old seedlings (Watanabe variety) were transplanted to plots 2.5 × 6 m. seeded with the weed seeds indicated in Table 1. At 5 and 10 DAT periods, the herbicides were applied to the plants (now at the 1.2 and 2.0 leaf stage, respectively, of grass weed) at the indicated rate in kilograms per hectare (kg/ha). The weed control and rice injury results for 3 replications are reported in percentages as of the indicated times of observation. The percentages given in the "Perennials" column are based on the weight of the weeds at 63 DAT, i.e., 42 gms/3.6 m^2 for the weedy check.

[3] = system: transplanted rice (ordinary and infant seedlings); test: Example 5 field test, rice yield; assay type: in vivo; settings: in vivo
Protocol: (§2) In the tests described in the tables below, the herbicides were formulated and used in granular form in conventional manner. […] The commercial herbicide used was a granular product having 5% active ingredient.
(§3) In the field tests of the herbicide of this invention with transplanted rice, the rice seedlings were grown in conventional manner, by seeding the rice in a typical seedbed of sandy loam to clay soil of the country wherein the test was conducted. For laboratory and greenhouse work the seedlings were obtained by seeding rice in a mixture of soil, e.g., Ray silt loam, and peat in wood flats. For purposes of testing the herbicides on younger rice seedlings (infant or Dapog) the rice was usually allowed to grow for 6-15 days before lifting for transplanting. Older (ordinary) rice plants were usually grown for a period of about 2-3 weeks, or as much as about 7 weeks before lifting. Since the period of growth is dependent upon climatic conditions, a better measure of when to transplant the rice seedling is the leaf stage of growth; for infant or Dapog rice the seedling is lifted at the 1.5-2 leaf stage of growth, and for ordinary seedlings at the 2.5-5 leaf stage. The seedlings were then transplanted to the test plots for evaluation of the herbicide for injury against weed species present with the transplanted rice. The herbicides were then applied to the growth medium of the weeds and transplant rice, either preemergent or postemergent with respect to the weeds and postemergent with respect to the transplanted rice. Application times are designated in the tables as "DAT", meaning "days after transplant". Application rates given in the tables refer to the amount of active ingredient used.
(§4) The rice seedlings were grown to the 1.7 leaf stage for infant seedlings and to the 5.5 leaf stage for ordinary seedlings. Two days after puddling the soil in which the seedlings were to be transplanted, both infant and ordinary seedlings were transplanted into plots 8.5 m^2.
(§5) The weed symbol "Obw" represents "other broadleaf weeds" of unspecified identity. Results presented in Table 5 represent the average of 2 replications.

transplanted rice = test: Example 1 field test, rice injury; assay type: in vivo, rice (Watanabe variety)
Excerpt: as §1

[4] = system: Sedges: Cd, Ci, Fl (Cyperus difformis, Cyperus iria, Fimbristylis littoralis); test: Example 4 field test on ordinary rice, weed control, Munoz, Philippines; assay type: in vivo; settings: obs. 36 DAT
Excerpt: (§6) Treatments were replicated four times.

[5] = system: Grass: Ec and Ecol (Echinochloa crusgalli, Echinochloa colonum); test: as above; assay type: in vivo; settings: obs. 36 DAT
Excerpt: as §6

Monochoria vaginalis = test: Example 2 field test, weed control, Chia Yi, Taiwan; assay type: in vivo; settings: obs. 63 DAT
Protocol: as §7, §8

[6] = system: transplanted rice (ordinary and infant seedlings); test: Example 5 field test, rice injury
Protocol: as §2, §3, §4, §5

[7] = 1.0 kg/ha, 15 DAT, infant seedlings
[8] = 1.0 kg/ha, 15 DAT, ordinary seedlings
[9] = .25 kg/ha, 2 DAT, infant seedlings
[10] = .25 kg/ha, 2 DAT, ordinary seedlings
[11] = .5 kg/ha, 7 DAT, infant seedlings
[12] = .5 kg/ha, 7 DAT, ordinary seedlings

Q: For `CCCCOCN(C(=O)CCl)c1c(C)cccc1C(C)(C)C` [Herbicide A, n-(butoxymethyl)-6'-tert-butyl-2-chloro-o-acetotoluidide], which “control of Obw in words” value ([1]; 0.25 kg/ha both plots, 1.0 kg/ha ordinary) is on record?
A: controlled completely

Q: And the “% Weed Control (Obw)” value [1, 7]?
A: 96%

Q: And the “% Weed Control (Obw)” value [1, 8]?
A: 100%

Q: And the “% Weed Control (Obw)” value [1, 9]?
A: 100%

Q: What about the “% Weed Control (Obw)” value [1, 10] of the same compound?
A: 100%

Q: And the “% Weed Control (Obw)” value [1, 11]?
A: 83%

Q: And the “% Weed Control (Obw)” value [1, 12]?
A: 82%

Q: And the “% Weed Control (Echinochloa crusgalli)” value (Echinochloa crusgalli; 4 DAT, 1.0 kg/ha)?
A: 100%

Q: What about the “% Weed Control (Echinochloa crusgalli)” value (Echinochloa crusgalli; 4 DAT, 2.0 kg/ha) of the same compound?
A: 100%

Q: And the “% Weed Control (Echinochloa crusgalli)” value (Echinochloa crusgalli; 4 DAT, .25 kg/ha)?
A: 85%

Q: What about the “% Weed Control (Echinochloa crusgalli)” value (Echinochloa crusgalli; 4 DAT, .5 kg/ha) of the same compound?
A: 98%

Q: What about the “% Weed Control (Echinochloa crusgalli)” value (Echinochloa crusgalli; 10 DAT, 1.0 kg/ha) of the same compound?
A: 100%

Q: What about the “% Weed Control (Echinochloa crusgalli)” value (Echinochloa crusgalli; 10 DAT, 2.0 kg/ha) of the same compound?
A: 100%

Q: And the “% Weed Control (Echinochloa crusgalli)” value (Echinochloa crusgalli; 10 DAT, .25 kg/ha)?
A: 65%

Q: And the “% Weed Control (Echinochloa crusgalli)” value (Echinochloa crusgalli; 10 DAT, .5 kg/ha)?
A: 95%

Q: And the “% Weed Control (Perennials Ek and Sa)” value ([2]; 5 DAT, 1.0 kg/ha)?
A: 68%

Q: What about the “% Weed Control (Perennials Ek and Sa)” value ([2]; 5 DAT, 2.0 kg/ha) of the same compound?
A: 100%

Q: What about the “% Weed Control (Perennials Ek and Sa)” value ([2]; 5 DAT, .25 kg/ha) of the same compound?
A: 0%

Q: What about the “% Weed Control (Perennials Ek and Sa)” value ([2]; 5 DAT, .5 kg/ha) of the same compound?
A: 55%

Q: What about the “% Weed Control (Perennials Ek and Sa)” value ([2]; 10 DAT, 1.0 kg/ha) of the same compound?
A: 0%

Q: And the “% Weed Control (Perennials Ek and Sa)” value ([2]; 10 DAT, 2.0 kg/ha)?
A: 0%

Q: And the “% Weed Control (Perennials Ek and Sa)” value ([2]; 10 DAT, .25 kg/ha)?
A: 0%

Q: And the “% Weed Control (Perennials Ek and Sa)” value ([2]; 10 DAT, .5 kg/ha)?
A: 2%

Q: And the perennial control ([2]; at 14 DAT and at rates less than 2 kgs/ha applied 5 DAT)?
A: less than adequate

Q: And the “Yield % of H.W.C.” value [3]?
A: 97% and 95% and 96% and 98% and 99% and 102%

Q: What about the “yields vs Herbicide B at 1.5 kg/ha 7 DAT” value [3] of the same compound?
A: essentially the same

Q: What about the “% Rice Injury” value (transplanted rice; 5 DAT, 1.0 kg/ha, obs. 21 DAT) of the same compound?
A: 5%

Q: What about the “% Rice Injury” value (transplanted rice; 5 DAT, 1.0 kg/ha, obs. 42 DAT) of the same compound?
A: 0%

Q: What about the “% Rice Injury” value (transplanted rice; 5 DAT, 2.0 kg/ha, obs. 21 DAT) of the same compound?
A: 10%

Q: What about the “% Rice Injury” value (transplanted rice; 5 DAT, 2.0 kg/ha, obs. 42 DAT) of the same compound?
A: 0%

Q: And the “% Rice Injury” value (transplanted rice; 5 DAT, .25 kg/ha, obs. 21 DAT)?
A: 0%

Q: What about the “% Rice Injury” value (transplanted rice; 5 DAT, .25 kg/ha, obs. 42 DAT) of the same compound?
A: 0%

Q: And the “% Rice Injury” value (transplanted rice; 5 DAT, .5 kg/ha, obs. 21 DAT)?
A: 0%

Q: What about the “% Rice Injury” value (transplanted rice; 5 DAT, .5 kg/ha, obs. 42 DAT) of the same compound?
A: 0%

Q: What about the “% Rice Injury” value (transplanted rice; 10 DAT, 1.0 kg/ha, obs. 21 DAT) of the same compound?
A: 0%

Q: What about the “% Rice Injury” value (transplanted rice; 10 DAT, 1.0 kg/ha, obs. 42 DAT) of the same compound?
A: 0%

Q: What about the “% Rice Injury” value (transplanted rice; 10 DAT, 2.0 kg/ha, obs. 21 DAT) of the same compound?
A: 10%

Q: And the “% Rice Injury” value (transplanted rice; 10 DAT, 2.0 kg/ha, obs. 42 DAT)?
A: 0%

Q: And the “% Rice Injury” value (transplanted rice; 10 DAT, .25 kg/ha, obs. 21 DAT)?
A: 0%

Q: What about the “% Rice Injury” value (transplanted rice; 10 DAT, .25 kg/ha, obs. 42 DAT) of the same compound?
A: 0%

Q: What about the “% Rice Injury” value (transplanted rice; 10 DAT, .5 kg/ha, obs. 21 DAT) of the same compound?
A: 0%

Q: What about the “% Rice Injury” value (transplanted rice; 10 DAT, .5 kg/ha, obs. 42 DAT) of the same compound?
A: 0%

Q: And the “early season injury to rice” value (transplanted rice; Example 1, outgrown)?
A: slight early season injury to rice was outgrown

Q: What about the “% Weed control, Sedges (Cd, Ci, Fl)” value ([4]; 5 DAT, 1.0 kg/ha) of the same compound?
A: 100%

Q: What about the “% Weed control, Sedges (Cd, Ci, Fl)” value ([4]; 5 DAT, 2.0 kg/ha) of the same compound?
A: 100%

Q: And the “% Weed control, Sedges (Cd, Ci, Fl)” value ([4]; 5 DAT, .25 kg/ha)?
A: 100%

Q: What about the “% Weed control, Sedges (Cd, Ci, Fl)” value ([4]; 5 DAT, .5 kg/ha) of the same compound?
A: 100%

Q: And the “% Weed control, Sedges (Cd, Ci, Fl)” value ([4]; 14 DAT, 1.0 kg/ha)?
A: 60%

Q: And the “% Weed control, Sedges (Cd, Ci, Fl)” value ([4]; 14 DAT, 2.0 kg/ha)?
A: 60%

Q: And the “% Weed control, Sedges (Cd, Ci, Fl)” value ([4]; 14 DAT, .25 kg/ha)?
A: 60%

Q: What about the “% Weed control, Sedges (Cd, Ci, Fl)” value ([4]; 14 DAT, .5 kg/ha) of the same compound?
A: 50%

Q: And the “% Weed control, Grass (Ec and Ecol)” value ([5]; 5 DAT, 1.0 kg/ha)?
A: 100%

Q: And the “% Weed control, Grass (Ec and Ecol)” value ([5]; 5 DAT, 2.0 kg/ha)?
A: 100%

Q: And the “% Weed control, Grass (Ec and Ecol)” value ([5]; 5 DAT, .25 kg/ha)?
A: 100%

Q: What about the “% Weed control, Grass (Ec and Ecol)” value ([5]; 5 DAT, .5 kg/ha) of the same compound?
A: 100%

Q: And the “% Weed control, Grass (Ec and Ecol)” value ([5]; 14 DAT, 1.0 kg/ha)?
A: 80%

Q: What about the “% Weed control, Grass (Ec and Ecol)” value ([5]; 14 DAT, 2.0 kg/ha) of the same compound?
A: 80%

Q: And the “% Weed control, Grass (Ec and Ecol)” value ([5]; 14 DAT, .25 kg/ha)?
A: 60%

Q: And the “% Weed control, Grass (Ec and Ecol)” value ([5]; 14 DAT, .5 kg/ha)?
A: 80%

Q: And the “% Weed Control (Monochoria Vaginalis)” value (Monochoria vaginalis; 4 DAT, 1.0 kg/ha)?
A: 100%

Q: What about the “% Weed Control (Monochoria Vaginalis)” value (Monochoria vaginalis; 4 DAT, 2.0 kg/ha) of the same compound?
A: 100%

Q: What about the “% Weed Control (Monochoria Vaginalis)” value (Monochoria vaginalis; 4 DAT, .25 kg/ha) of the same compound?
A: 80%

Q: What about the “% Weed Control (Monochoria Vaginalis)” value (Monochoria vaginalis; 4 DAT, .5 kg/ha) of the same compound?
A: 99%

Q: And the “% Weed Control (Monochoria Vaginalis)” value (Monochoria vaginalis; 10 DAT, 1.0 kg/ha)?
A: 99%

Q: And the “% Weed Control (Monochoria Vaginalis)” value (Monochoria vaginalis; 10 DAT, 2.0 kg/ha)?
A: 99%

Q: What about the “% Weed Control (Monochoria Vaginalis)” value (Monochoria vaginalis; 10 DAT, .25 kg/ha) of the same compound?
A: 35%

Q: What about the “% Weed Control (Monochoria Vaginalis)” value (Monochoria vaginalis; 10 DAT, .5 kg/ha) of the same compound?
A: 87%

Q: And the Injury [6, 7]?
A: 0

Q: What about the Injury [6, 8] of the same compound?
A: 0

Q: What about the Injury [6, 9] of the same compound?
A: 0

Q: What about the Injury [6, 10] of the same compound?
A: 0

Q: And the Injury [6, 11]?
A: 0

Q: And the Injury [6, 12]?
A: 0

Q: What about the “injury to seedlings in words” value ([6]; ordinary and infant seedlings) of the same compound?
A: Injury to neither ordinary nor infant seedlings occurred
